Test results from patent publication US9211310B2, “Use of a Chinese medicine composition in preparing medicaments for treating secondary prevention of myocardial infarction” (TASLY PHARMACEUTICAL GROUP CO., LTD, priority 2010, dated 2015).

System: patients after acute myocardial infarction
Experiment: Life quality, Seattle Angina Questionnaire (SAQ), same clinical trial
Assay type: in vivo, human
Settings: PP
Excerpt: 3508 patients who were in accordance with the diagnostic standards of AMI for 28 days to 2 years and differentiated as Qi deficiency and blood stagnation syndrome by TCM were studied. 0.5 g Chinese medicine composition prepared by the method of EXAMPLE 1 (Coded as QSYQ) was administrated half an hour after meal, 3 times per day.
There were 19 questions in the Seattle angina questionnaire (SAQ), including 5 parts: physical limitation (PL), anginal stability (AS), anginal frequency (AF), treatment satisfaction (TS) and disease perception (DP). After being given necessary explanation by doctors, the questions were answered independently by patients.
They included the overall survival time, angina pectoris score, TCM symptom score and life quality score, where angina pectoris score, TCM symptom score and life quality score were evaluated at randomization, in 1st, 3rd, 6th, 9th, 12th month after treatment and 18th month after follow-up.
All evaluation results of SAQ were described during the period of observation, and Wilcoxon rank sum test was used for inter-group comparison.
The evaluation results in the SAQ were depicted in different observations, and inter-group comparison was tested by Wilcoxon Rank-sum test.

CC(=O)Oc1ccccc1C(=O)O [Control group, aspirine]
9th question: Severe, patients (%) (12 months after treatment): (0.21%)
9th question: Uneffective, patients (%) (12 months after treatment): (24.25%)
10th question: Dissatisfied, patients (%) (12 months after treatment): (18.68%)
10th question: Highly satisfied, patients (%) (12 months after treatment): (8.26%)
10th question: Mostly dissatisfied, patients (%) (12 months after treatment): (18.61%)
10th question: Mostly satisfied, patients (%) (12 months after treatment): (31.84%)
10th question: Partly dissatisfied, patients (%) (12 months after treatment): (22.60%)
11th question: Continuously worried, patients (%) (12 months after treatment): (1.96%)
11th question: No worried, patients (%) (12 months after treatment): (7.42%)
11th question: Occasionally worried, patients (%) (12 months after treatment): (40.59%)
11th question: Often worried, patients (%) (12 months after treatment): (7.98%)
11th question: Seldom worried, patients (%) (12 months after treatment): (42.06%)
SAQ 4th question, 1-2 times per week: % of patients (12 months after treatment): (10.29%)
SAQ 4th question, 1-2 times per week: number of patients (12 months after treatment): 147
SAQ 4th question, 1-3 times per week: % of patients (12 months after treatment): (3.36%)
SAQ 4th question, 1-3 times per week: number of patients (12 months after treatment): 48
SAQ 4th question, <1 time per week: % of patients (12 months after treatment): (16.38%)
SAQ 4th question, <1 time per week: number of patients (12 months after treatment): 234
SAQ 4th question, Not used: % of patients (12 months after treatment): (67.74%)
SAQ 4th question, Not used: number of patients (12 months after treatment): 968
SAQ 4th question, ≧3 times per week: % of patients (12 months after treatment): (2.24%)
SAQ 4th question, ≧3 times per week: number of patients (12 months after treatment): 32
SAQ 4th question, ≧4 times per day: % of patients (12 months after treatment): (0.00%)
SAQ 4th question, ≧4 times per day: number of patients (12 months after treatment): 0
SAQ 5th question, 1-2 times per week: % of patients (12 months after treatment): (34.01%)
SAQ 5th question, 1-2 times per week: number of patients (12 months after treatment): 486
SAQ 5th question, 1-3 times per day: % of patients (12 months after treatment): (4.13%)
SAQ 5th question, 1-3 times per day: number of patients (12 months after treatment): 59
SAQ 5th question, <1 time per week: % of patients (12 months after treatment): (30.58%)
SAQ 5th question, <1 time per week: number of patients (12 months after treatment): 437
SAQ 5th question, No onset: % of patients (12 months after treatment): (5.67%)
SAQ 5th question, No onset: number of patients (12 months after treatment): 81
SAQ 5th question, ≧3 times per week: % of patients (12 months after treatment): (25.33%)
SAQ 5th question, ≧3 times per week: number of patients (12 months after treatment): 362
SAQ 5th question, ≧4 times per day: % of patients (12 months after treatment): (0.28%)
SAQ 5th question, ≧4 times per day: number of patients (12 months after treatment): 4
SAQ 6th question, Dissatisfied: % of patients (12 months after treatment): (0.07%)
SAQ 6th question, Dissatisfied: number of patients (12 months after treatment): 1
SAQ 6th question, Highly satisfied: % of patients (12 months after treatment): (27.78%)
SAQ 6th question, Highly satisfied: number of patients (12 months after treatment): 397
SAQ 6th question, Mostly dissatisfied: % of patients (12 months after treatment): (0.84%)
SAQ 6th question, Mostly dissatisfied: number of patients (12 months after treatment): 12
SAQ 6th question, Mostly satisfied: % of patients (12 months after treatment): (61.72%)
SAQ 6th question, Mostly satisfied: number of patients (12 months after treatment): 882
SAQ 6th question, Partly satisfied: % of patients (12 months after treatment): (9.59%)
SAQ 6th question, Partly satisfied: number of patients (12 months after treatment): 137
SAQ 7th question, Dissatisfied: % of patients (12 months after treatment): (0.07%)
SAQ 7th question, Dissatisfied: number of patients (12 months after treatment): 1
SAQ 7th question, Highly satisfied: % of patients (12 months after treatment): (31.25%)
SAQ 7th question, Highly satisfied: number of patients (12 months after treatment): 446
SAQ 7th question, Mostly dissatisfied: % of patients (12 months after treatment): (0.28%)
SAQ 7th question, Mostly dissatisfied: number of patients (12 months after treatment): 4
SAQ 7th question, Mostly satisfied: % of patients (12 months after treatment): (60.34%)
SAQ 7th question, Mostly satisfied: number of patients (12 months after treatment): 861
SAQ 7th question, Partly satisfied: % of patients (12 months after treatment): (8.06%)
SAQ 7th question, Partly satisfied: number of patients (12 months after treatment): 115
SAQ Question 1-1 Mildly limited, number of patients (12 months after treatment): 7
SAQ Question 1-1 Mildly limited, percent of patients (12 months after treatment): (0.49%)
SAQ Question 1-1 Moderately limited, number of patients (12 months after treatment): 1
SAQ Question 1-1 Moderately limited, percent of patients (12 months after treatment): (0.07%)
SAQ Question 1-1 Not limited, number of patients (12 months after treatment): 1371
SAQ Question 1-1 Not limited, percent of patients (12 months after treatment): (96.28%)
SAQ Question 1-1 Other reasons, number of patients (12 months after treatment): 4
SAQ Question 1-1 Other reasons, percent of patients (12 months after treatment): (0.28%)
SAQ Question 1-1 Severely limited, number of patients (12 months after treatment): 0
SAQ Question 1-1 Severely limited, percent of patients (12 months after treatment): (0.00%)
SAQ Question 1-1 Slightly limited, number of patients (12 months after treatment): 41
SAQ Question 1-1 Slightly limited, percent of patients (12 months after treatment): (2.88%)
SAQ Question 1-2 Mildly limited, number of patients (12 months after treatment): 8
SAQ Question 1-2 Mildly limited, percent of patients (12 months after treatment): (0.56%)
SAQ Question 1-2 Moderately limited, number of patients (12 months after treatment): 1
SAQ Question 1-2 Moderately limited, percent of patients (12 months after treatment): (0.07%)
SAQ Question 1-2 Not limited, number of patients (12 months after treatment): 1365
SAQ Question 1-2 Not limited, percent of patients (12 months after treatment): (95.79%)
SAQ Question 1-2 Other reasons, number of patients (12 months after treatment): 6
SAQ Question 1-2 Other reasons, percent of patients (12 months after treatment): (0.42%)
SAQ Question 1-2 Severely limited, number of patients (12 months after treatment): 0
SAQ Question 1-2 Severely limited, percent of patients (12 months after treatment): (0.00%)
SAQ Question 1-2 Slightly limited, number of patients (12 months after treatment): 45
SAQ Question 1-2 Slightly limited, percent of patients (12 months after treatment): (3.16%)
SAQ Question 1-6: Mildly limited, patients (%) (12 months after treatment): (13.45%)
SAQ Question 1-6: Moderately limited, patients (%) (12 months after treatment): (9.58%)
SAQ Question 1-6: Not limited, patients (%) (12 months after treatment): (42.39%)
SAQ Question 1-6: Other reasons, patients (%) (12 months after treatment): (0.92%)
SAQ Question 1-6: Severely limited, patients (%) (12 months after treatment): (1.76%)
SAQ Question 1-6: Slightly limited, patients (%) (12 months after treatment): (31.90%)
SAQ Question 1-7: Mildly limited, patients (%) (12 months after treatment): (20.24%)
SAQ Question 1-7: Moderately limited, patients (%) (12 months after treatment): (9.84%)
SAQ Question 1-7: Not limited, patients (%) (12 months after treatment): (21.81%)
SAQ Question 1-7: Other limited, patients (%) (12 months after treatment): (3.56%)
SAQ Question 1-7: Severely limited, patients (%) (12 months after treatment): (12.05%)
SAQ Question 1-7: Slightly limited, patients (%) (12 months after treatment): (32.50%)
SAQ Question 1-8: Mildly limited, patients (%) (12 months after treatment): (24.98%)
SAQ Question 1-8: Moderately limited, patients (%) (12 months after treatment): (12.17%)
SAQ Question 1-8: Not limited, patients (%) (12 months after treatment): (14.53%)
SAQ Question 1-8: Other reasons, patients (%) (12 months after treatment): (4.22%)
SAQ Question 1-8: Severely limited, patients (%) (12 months after treatment): (15.68%)
SAQ Question 1-8: Slightly limited, patients (%) (12 months after treatment): (28.42%)
8th question: Dissatisfied, patients (%) (Baseline): (0.87%)
8th question: Highly satisfied, patients (%) (Baseline): (14.83%)
8th question: Mostly dissatisfied, patients (%) (Baseline): (6.61%)
8th question: Mostly satisfied, patients (%) (Baseline): (45.16%)
8th question: Partly satisfied, patients (%) (Baseline): (32.53%)
9th question: Few, patients (%) (Baseline): (20.91%)
9th question: Mild, patients (%) (Baseline): (37.01%)
9th question: Moderate, patients (%) (Baseline): (26.99%)
9th question: Severe, patients (%) (Baseline): (3.34%)
9th question: Uneffective, patients (%) (Baseline): (11.76%)
10th question: Dissatisfied, patients (%) (Baseline): (25.25%)
10th question: Highly satisfied, patients (%) (Baseline): (2.07%)
10th question: Mostly dissatisfied, patients (%) (Baseline): (24.11%)
10th question: Mostly satisfied, patients (%) (Baseline): (16.30%)
10th question: Partly satisfied, patients (%) (Baseline): (32.26%)
11th question: Continuously worried, patients (%) (Baseline): (9.21%)
11th question: No worried, patients (%) (Baseline): (3.94%)
11th question: Occasionally worried, patients (%) (Baseline): (41.32%)
11th question: Often worried, patients (%) (Baseline): (25.10%)
11th question: Seldom worried, patients (%) (Baseline): (20.43%)
SAQ 4th question, 1-2 times per week: % of patients (Baseline): (20.17%)
SAQ 4th question, 1-2 times per week: number of patients (Baseline): 301
SAQ 4th question, 1-3 times per day: % of patients (Baseline): (8.78%)
SAQ 4th question, 1-3 times per day: number of patients (Baseline): 131
SAQ 4th question, <1 time per week: % of patients (Baseline): (9.52%)
SAQ 4th question, <1 time per week: number of patients (Baseline): 142
SAQ 4th question, Not used: % of patients (Baseline): (43.16%)
SAQ 4th question, Not used: number of patients (Baseline): 644
SAQ 4th question, ≧3 times per week: % of patients (Baseline): (17.43%)
SAQ 4th question, ≧3 times per week: number of patients (Baseline): 260
SAQ 4th question, ≧4 times per day: % of patients (Baseline): (0.94%)
SAQ 4th question, ≧4 times per day: number of patients (Baseline): 14
SAQ 5th question, Few: % of patients (Baseline): (19.21%)
SAQ 5th question, Few: number of patients (Baseline): 287
SAQ 5th question, Mild: % of patients (Baseline): (31.26%)
SAQ 5th question, Mild: number of patients (Baseline): 467
SAQ 5th question, Moderate: % of patients (Baseline): (21.29%)
SAQ 5th question, Moderate: number of patients (Baseline): 318
SAQ 5th question, None: % of patients (Baseline): (22.02%)
SAQ 5th question, None: number of patients (Baseline): 329
SAQ 5th question, Not medicated by doctors: % of patients (Baseline): (3.01%)
SAQ 5th question, Not medicated by doctors: number of patients (Baseline): 45
SAQ 5th question, Severe: % of patients (Baseline): (3.21%)
SAQ 5th question, Severe: number of patients (Baseline): 48
SAQ 6th question, Dissatisfied: % of patients (Baseline): (1.14%)
SAQ 6th question, Dissatisfied: number of patients (Baseline): 17
SAQ 6th question, Highly satisfied: % of patients (Baseline): (14.90%)
SAQ 6th question, Highly satisfied: number of patients (Baseline): 223
SAQ 6th question, Mostly dissatisfied: % of patients (Baseline): (6.48%)
SAQ 6th question, Mostly dissatisfied: number of patients (Baseline): 97
SAQ 6th question, Mostly satisfied: % of patients (Baseline): (44.29%)
SAQ 6th question, Mostly satisfied: number of patients (Baseline): 663
SAQ 6th question, Partly satisfied: % of patients (Baseline): (33.20%)
SAQ 6th question, Partly satisfied: number of patients (Baseline): 497
SAQ 7th question, Dissatisfied: % of patients (Baseline): (0.33%)
SAQ 7th question, Dissatisfied: number of patients (Baseline): 5
